Our source for the EC50 and Emax values is patent US20240368214A1, “POSITIVE NMDA-MODULATING COMPOUNDS AND METHODS OF USE THEREOF” (SAGE THERAPEUTICS, INC., priority 2021, published 2024).

As usually defined, the EC50 is the concentration giving half of the maximal effect. As usually defined, the Emax is the greatest response seen or fitted, relative to the assay's reference.

Read-outs that look alike come from different tables or passages of the source.

The assay addresses T1, recombinant human GluN1/GluN2A receptor (Homo sapiens, UniProt Q05586+Q12879).
T1 construct: expressed in transfected cells; host or cells: HEK293, tetracycline-inducible expression
The assay is described as follows: Whole-cell patch clamp of mammalian cells (Syncropatch 384i), NMDA modulation. The assay is classed as cell-based. As to conditions: HEK293 cells, human GluN1/GluN2A, glutamate 1 μM / glycine 100 μM, -80 mV, peak amplitude increase; for EC50: read-out: EC50. The source says: Whole-Cell Patch Clamp of Mammalian Cells (Syncropatch 384i (Nanion Technologies))
Whole-cell patch clamp electrophysiology was used to investigate the effects of compounds on GluN1/GluN2A N-methyl-D-aspartate (NMDA) glutamate receptors expressed in mammalian cells.
Human embryonic kidney (HEK293) cells expressing the recombinant human GluN1/GluN2A receptor under the control of a tetracycline-inducible expression system were used. Cells were maintained in Dulbecco's Modified Eagle's Medium (DMEM) with 1% glutamine, 10% Tetracycline System Approved fetal bovine serum (FBS), and NMDA inhibitors. Cells were cultured in a humidified 5% CO2 incubator at 37° C. Cells were induced with 50 ng/ml tetracycline 18-24 hours prior to testing. A cocktail of channel blockers was added to the media to prevent cell death.
Cells were 60-80% confluent at the time of harvest. Cells were detached from the flask TrypLE Enzyme Express (Thermo Fisher) at 37° C., and then cold extracellular solution was added to the flask, followed by incubation at 4° C. and then trituration of the cells. The cell solution was then placed on a shaker on the Syncropatch platform at 10° C. with a shake speed of a minimum 200 rpm for at least 30 minutes prior to testing.
Extracellular (EC) solution (in mM) —140 NaCl, 4 KCl, 5 CaCl2, 10 HEPES, 5 Glucose, pH 7.4 with NaOH. All external solutions contained 0.2% DMSO and 0.01% Kolliphor® EL (C5135, Sigma) throughout the experiment.
Intracellular (IC) solution (in mM) —120 CsF, 10 mM EGTA, 10 NaCl, 10 HEPES, 4 NaATP, 2 MgCl2, pH 7.2 with CsOH.
First, the DMSO Master Plate was prepared, in which the DMSO stock of each test compound was serially diluted in 100% DMSO to 1000× the final assay concentration. Immediately prior to assay testing, the compounds were diluted 1:100 by transferring solutions from the DMSO Mast Plate to the Intermediate Plate pre-filled with EC solution using a Biomek FX automated liquid handling system. Compounds were then diluted further with extracellular solution into two pre-incubation plates—1) compound from the Intermediate Plate was mixed with EC solution at a 1:5 dilution to create a 2× Compound Pre-Incubation Plate which was diluted a further 1:2 when added to the Syncropatch for the initial compound pre-incubation. And 2) compound from the Intermediate plate was mixed with EC solution at a 1:10 Dilution to create the 1× Compound Pre-Incubation Plate, which was used for subsequent compound pre-incubations. Finally, a Compound+Agonist Plate was prepared by mixing compound from the 2× Compound Pre-Incubation Plate with 2× concentration of co-agonists in a 1:1 ratio.
Each experiment sequentially included cell catching, sealing, whole-cell formation, liquid application, recording and data acquisition. Whole-cell patch clamp recordings were performed using multi-hole high resistance chips on the SyncroPatch 384i (Nanion Technologies). A steady-state voltage pulse at -80 mV was applied throughout the assay and a 10 second recording window was triggered around 1 second prior to application of co-agonists. Currents were leak corrected and sampled at 5 kHz.
A fast application was used, in which 5 μl co-agonist was rapidly applied at a speed of 30 μl/s and then rapidly removed from the well. To test for modulator activity, the co-agonists glutamate (1 μM) and glycine (100 μM) were applied three times to show activation reproducibility, followed by 120 seconds pre-incubation of test compound alone. The test compound was then re-applied in the presence of co-agonists two times. This was followed by application of the agonist alone, although test compound may not be fully washed from the well prior to this step. Finally, a saturating concentration of co-agonists (glutamate 100 μM/glycine 100 μM) was applied.
The voltage protocol generation data collection and analysis were performed on PatchControll384 and DataControll384. […]
Background: In patch-clamp work, channel activity is measured electrically.

T1 sequence (Q12879 23-1464, other chains not shown): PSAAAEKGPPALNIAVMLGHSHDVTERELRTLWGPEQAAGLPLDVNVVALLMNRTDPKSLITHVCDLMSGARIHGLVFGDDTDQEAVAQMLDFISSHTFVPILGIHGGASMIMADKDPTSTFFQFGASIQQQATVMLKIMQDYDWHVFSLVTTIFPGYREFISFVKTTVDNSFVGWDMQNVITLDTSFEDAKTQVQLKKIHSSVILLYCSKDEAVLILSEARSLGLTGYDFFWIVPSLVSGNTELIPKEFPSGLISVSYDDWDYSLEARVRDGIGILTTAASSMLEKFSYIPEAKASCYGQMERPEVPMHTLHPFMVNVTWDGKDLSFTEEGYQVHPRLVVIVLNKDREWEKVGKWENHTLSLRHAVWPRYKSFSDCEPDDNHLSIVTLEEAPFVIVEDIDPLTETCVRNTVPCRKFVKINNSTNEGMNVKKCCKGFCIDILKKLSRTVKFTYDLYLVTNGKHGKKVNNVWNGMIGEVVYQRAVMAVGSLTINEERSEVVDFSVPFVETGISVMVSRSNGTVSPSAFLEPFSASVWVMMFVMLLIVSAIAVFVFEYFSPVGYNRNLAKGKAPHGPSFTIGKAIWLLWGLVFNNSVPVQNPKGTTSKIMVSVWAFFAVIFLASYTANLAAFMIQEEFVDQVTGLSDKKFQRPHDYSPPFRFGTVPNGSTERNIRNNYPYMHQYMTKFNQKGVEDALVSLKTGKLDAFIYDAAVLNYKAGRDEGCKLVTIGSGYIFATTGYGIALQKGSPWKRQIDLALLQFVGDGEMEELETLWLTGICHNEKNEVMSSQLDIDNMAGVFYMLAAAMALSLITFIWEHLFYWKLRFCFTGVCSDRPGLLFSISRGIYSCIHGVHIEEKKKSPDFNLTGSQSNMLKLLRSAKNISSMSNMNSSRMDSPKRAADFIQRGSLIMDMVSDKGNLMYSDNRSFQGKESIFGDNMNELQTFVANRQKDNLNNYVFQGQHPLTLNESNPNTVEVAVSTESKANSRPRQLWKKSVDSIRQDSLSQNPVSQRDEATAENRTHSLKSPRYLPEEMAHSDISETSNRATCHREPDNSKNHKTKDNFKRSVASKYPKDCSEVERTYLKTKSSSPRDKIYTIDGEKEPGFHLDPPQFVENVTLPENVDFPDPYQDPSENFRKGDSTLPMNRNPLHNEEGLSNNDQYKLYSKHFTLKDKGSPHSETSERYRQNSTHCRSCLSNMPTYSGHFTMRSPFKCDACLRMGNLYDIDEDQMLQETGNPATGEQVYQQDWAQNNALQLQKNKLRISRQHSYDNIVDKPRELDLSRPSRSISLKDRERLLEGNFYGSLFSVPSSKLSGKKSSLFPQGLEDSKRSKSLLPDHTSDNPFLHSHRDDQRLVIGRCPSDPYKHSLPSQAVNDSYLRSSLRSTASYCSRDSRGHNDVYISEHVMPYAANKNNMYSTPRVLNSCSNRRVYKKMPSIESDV

For the compound `CC[C@]1(O)CC[C@@]2(C)[C@@H](CC[C@@H]3[C@@H]2CC[C@]2(C)[C@@H](C(CC[C@@H](O)C(C)C)C(F)(F)F)CC[C@@H]32)C1` (stereo in doubt) [Compound A-19, (3S,5S,8R,9S,10S,13S,14S,17R)-3-ethyl-10,13-dimethyl-17-((2R,5R)-1,1,1-trifluoro-5-hydroxy-6-methylheptan-2-yl)hexadecahydro-1H-cyclopenta[a]phenanthren-3-ol], the EC50 (Table A-2) is over 1000 nM.

In the case of `CCC1(O)CCC[C@@]2(C)[C@@H](CC[C@@H]3[C@@H]2CC[C@]2(C)[C@@H]([C@H](C)CC[C@](C)(O)C(F)(F)F)CC[C@@H]32)C1` (stereo in doubt) [Compound D-8, (1R,3aS,3bR,5aS,7S,10aS,10bS,12aR)-7-ethyl-10a,12a-dimethyl-1-((2R,5S)-6,6,6-trifluoro-5-hydroxy-5-methylhexan-2-yl)octadecahydrocyclohepta[a]cyclopenta[f]naphthalen-7-ol], where the note is “Table D-2”, the Emax lay within 100 to 200% and the 50% effective concentration (EC50) is over 1000 nM.

For `CC[C@H](CCCC(C)(C)O)[C@H]1CC[C@H]2[C@@H]3CC[C@H]4C[C@](O)(CC)CC[C@]4(C)[C@H]3CC[C@]12C` [Compound A-1, (3S,5S,8R,9S,10S,13R,14S,17R)-3-ethyl-17-((R)-7-hydroxy-7-methyloctan-3-yl)-10,13-dimethylhexadecahydro-1H-cyclopenta[a]phenanthren-3-ol], where the note is “Table A-2”, the Emax fell in the range of 100 to 200% and the EC50 lay within 1 to 100 nM.

For the compound `CC[C@H](CC[C@@](C)(O)C(F)(F)F)[C@H]1CC[C@H]2[C@@H]3CC[C@H]4C[C@](O)(CC)CC[C@]4(C)[C@H]3CC[C@]12C` [Compound A-2, (3S,5S,8R,9S,10S,13R,14S,17R)-3-ethyl-10,13-dimethyl-17-((3R,6R)-7,7,7-trifluoro-6-hydroxy-6-methylheptan-3-yl)hexadecahydro-1H-cyclopenta[a]phenanthren-3-ol], under “Table A-2”, the Emax is 100 to 200% and the EC50 was in the range of 500 to 1000 nM.

Take `CC[C@H](CC[C@](C)(O)C(F)(F)F)[C@H]1CC[C@H]2[C@@H]3CC[C@H]4C[C@](O)(CC)CC[C@]4(C)[C@H]3CC[C@]12C` [Compound A-3, (3S,5S,8R,9S,10S,13R,14S,17R)-3-ethyl-10,13-dimethyl-17-((3R,6S)-7,7,7-trifluoro-6-hydroxy-6-methylheptan-3-yl)hexadecahydro-1H-cyclopenta[a]phenanthren-3-ol]: where the note is “Table A-2”, the maximal response (Emax) was over 200% and the concentration giving a half-maximal response (EC50) lay within 1 to 100 nM.

`CC[C@]1(O)CC[C@@]2(C)[C@@H](CC[C@@H]3[C@@H]2CC[C@]2(C)[C@@H]([C@H](F)CC[C@H](O)C(C)C)CC[C@@H]32)C1` [Compound A-4, (3S,5S,8R,9S,10S,13S,14S,17S)-3-ethyl-17-((1R,4S)-1-fluoro-4-hydroxy-5-methylhexyl)-10,13-dimethylhexadecahydro-1H-cyclopenta[a]phenanthren-3-ol]: under “Table A-2”, the Emax was over 200% and the EC50 is 1 to 100 nM.

Consider `CC[C@]1(O)CC[C@@]2(C)[C@@H](CC[C@@H]3[C@@H]2CC[C@]2(C)[C@@H]([C@H](F)CC[C@@H](O)C(C)C)CC[C@@H]32)C1` [Compound A-5, (3S,5S,8R,9S,10S,13S,14S,17S)-3-ethyl-17-((1R,4R)-1-fluoro-4-hydroxy-5-methylhexyl)-10,13-dimethylhexadecahydro-1H-cyclopenta[a]phenanthren-3-ol], for which, where the note is “Table A-2”, the Emax is over 200% and the EC50 lay within 1 to 100 nM.

For the compound `CC[C@]1(O)CC[C@@]2(C)[C@@H](CC[C@@H]3[C@@H]2CC[C@]2(C)[C@@H]([C@@H](CC[C@@H](O)C(C)C)OC)CC[C@@H]32)C1` [Compound A-6, (3S,5S,8R,9S,10S,13S,14S,17S)-3-ethyl-17-((1R,4R)-4-hydroxy-1-methoxy-5-methylhexyl)-10,13-dimethylhexadecahydro-1H-cyclopenta[a]phenanthren-3-ol], where the note is “Table A-2”, the Emax was over 200% and the EC50 lay within 100 to 500 nM.

For `CC[C@]1(O)CC[C@@]2(C)[C@@H](CC[C@@H]3[C@@H]2CC[C@]2(C)[C@@H]([C@@H](CC[C@H](O)C(C)C)OC)CC[C@@H]32)C1` [Compound A-7, (3S,5S,8R,9S,10S,13S,14S,17S)-3-ethyl-17-((1R,4S)-4-hydroxy-1-methoxy-5-methylhexyl)-10,13-dimethylhexadecahydro-1H-cyclopenta[a]phenanthren-3-ol], where the note is “Table A-2”, the maximal effect (Emax) was over 200% and the EC50 fell in the range of 100 to 500 nM.

As for `CC[C@]1(O)CC[C@@]2(C)[C@@H](CC[C@@H]3[C@@H]2CC[C@]2(C)[C@@H](C(C#N)CCCC(C)(C)O)CC[C@@H]32)C1` (stereo partly drawn) [Compound A-8, 2-((3S,5S,8R,9S,10S,13S,14S,17R)-3-ethyl-3-hydroxy-10,13-dimethylhexadecahydro-1H-cyclopenta[a]phenanthren-17-yl)-6-hydroxy-6-methylheptanenitrile], under “Table A-2”, the maximum response (Emax) is 100 to 200% and the concentration giving a half-maximal response (EC50) was 1 to 100 nM.

As to `CC[C@]1(O)CC[C@@]2(C)[C@@H](CC[C@@H]3[C@@H]2CC[C@]2(C)[C@@H]([C@H](C#N)CCCC(C)(C)O)CC[C@@H]32)C1` [Compound A-9, (R)-2-((3S,5S,8R,9S,10S,13S,14S,17R)-3-ethyl-3-hydroxy-10,13-dimethylhexadecahydro-1H-cyclopenta[a]phenanthren-17-yl)-6-hydroxy-6-methylheptanenitrile], for the setting “Table A-2”, the Emax was over 200% and the concentration giving a half-maximal response (EC50) is 1 to 100 nM.

Consider `CC[C@]1(O)CC[C@@]2(C)[C@@H](CC[C@@H]3[C@@H]2CC[C@]2(C)[C@@H]([C@@H](C#N)CCCC(C)(C)O)CC[C@@H]32)C1` [Compound A-9a], for which, for the setting “Table A-2”, the Emax is under 100% and the EC50 is 1 to 100 nM.

With `CC[C@]1(O)CC[C@@]2(C)[C@@H](CC[C@@H]3[C@@H]2CC[C@]2(C)[C@@H]([C@@H](CCCC(C)(C)O)OC)CC[C@@H]32)C1` [Compound A-10, (3S,5S,8R,9S,10S,13S,14S,17S)-3-ethyl-17-((R)-5-hydroxy-1-methoxy-5-methylhexyl)-10,13-dimethylhexadecahydro-1H-cyclopenta[a]phenanthren-3-ol], for the setting “Table A-2”, the Emax lay in the range of 100 to 200% and the half-maximal effective concentration (EC50) is 100 to 500 nM.

On to `CCO[C@H](CC[C@H](O)C(C)C)[C@H]1CC[C@H]2[C@@H]3CC[C@H]4C[C@](O)(CC)CC[C@]4(C)[C@H]3CC[C@]12C` [Compound A-11, (3S,5S,8R,9S,10S,13S,14S,17S)-17-((1R,4S)-1-ethoxy-4-hydroxy-5-methylhexyl)-3-ethyl-10,13-dimethylhexadecahydro-1H-cyclopenta[a]phenanthren-3-ol], for which the EC50 (Table A-2) is over 1000 nM.

As for `CCO[C@H](CC[C@H](O)C(C)C)[C@H]1CC[C@H]2[C@@H]3CC[C@@H]4C[C@](O)(CC)CC[C@]4(C)[C@H]3CC[C@]12C` [Compound A-11a, (3S,5R,8R,9S,10S,13S,14S,17S)-17-((1R,4S)-1-ethoxy-4-hydroxy-5-methylhexyl)-3-ethyl-10,13-dimethylhexadecahydro-1H-cyclopenta[a]phenanthren-3-ol], under “Table A-2”, the Emax was under 100% and the EC50 is over 1000 nM.
